# Reference: US11506670B2, “Method of genome-wide direct identification of electrophile-sensing targets” (Cornell University, priority 2018, dated 2022)
# Experiments:
# [1] = system: DNA synthesis in HEK293T cells; test: EdU/BrdU dual-pulse DNA-replication efficiency assay; assay type: cell-based, human; conditions: wt-Ube2V2 cells, post T-REX
# Procedure: 4.8×10^5 cells were plated in glass-bottomed dishes (In Vitro Scientific) and allowed to grow for 24 h. Cells were transfected with the indicated plasmid and allowed to grow for another 24 h. Cells were then treated with 3 μM Ht-PreHNE no alkyne for 2.5 h followed by two rinses with serum-free medium. After this time, 20 μM EdU (final concentration) was added into cell culture media for 30 min before the 3rd rinse. The cells were rinsed another two times before light shining. 2.5 h post light irradiation, cells were treated with 50 μM BrdU for 30 min at 37° C. Then the cells were fixed with −20° C. pre-chilled MeOH for 20 min and then carried on to immunofluorescence assay as described elsewhere.
# Whether DNA-synthesis stall (that occurs in response to many DNA damage events) accompanies C69-specific Ube2V2-HNEylation was investigated. A dual-pulse assay was used, which involves sequential, timed pulsing with two orthogonal DNA-labeling agents (EdU, followed by BrdU) that can be detected by fluorescence imaging (FIG. 13D). This assay is very accurate, because DNA-synthesis is measured over a defined time range, allowing a good estimate of synthesis-rate to be determined.
# Ube2N = molecular target: T1, Ube2N (Homo sapiens, UniProt P61088); test: T-REX targeted delivery efficiency, in-gel fluorescence (Cy5 Click); assay type: cell-based; conditions: HEK293T, Halo-Ube2N
# T1 construct: expressed in transfected cells; host or cells: HEK 293T
# T1 sequence (P61088 1-152): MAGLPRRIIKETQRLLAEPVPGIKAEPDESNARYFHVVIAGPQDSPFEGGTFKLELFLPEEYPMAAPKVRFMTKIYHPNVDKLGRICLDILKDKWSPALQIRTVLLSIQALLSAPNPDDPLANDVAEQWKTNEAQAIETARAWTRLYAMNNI
# Procedure: (§1) HEK 293T cells were maintained in 1×MEM+ Glutamax™ media supplemented with 10% FBS, 1×NEAA, 1× sodium pyruvate and 1× Pen-Strep. Cells were grown in a humidified, 5% CO2 incubator at 37° C. For in-gel fluorescence analysis and western blot, ˜0.7-0.8×10^6 HEK 293T cells were seeded in 8 cm^2 tissue culture dishes. 24 h later, cells were transfected using TransIT-2020 transfection reagent per the manufacturer's recommendation. Subsequent steps were performed under dim light. 24-36 h post transfection, monolayer of cells were treated with 25 μM Ht-PreHNE in serum-free media and incubated for 2.5 h. Cells were gently rinsed with serum-free media three times every 30 min over the next 1.5 h. Meanwhile, UV lamps were turned on 10 min prior to UV irradiation time. For samples designated for light exposure, lids were removed from the dishes and cells were placed under 365 nm UV light for 5-8 min. The cells were harvested, washed two times with ice-cold PBS and frozen in liquid nitrogen.
# (§2) All steps were performed in dark or under dim light. Cells from 8 cm^2 plates were lysed in 30 μL buffer containing 50 mM HEPES (pH 7.6), 150 mM NaCl, 1% Nonidet P-40, 1× Roche cOmplete, mini, EDTA-free protease inhibitor cocktail, and 0.3 mM TCEP by rapid freeze-thaw (×3). […] Protein concentration of the clarified lysate was determined using Bradford assay. […]
# Ube2V1 = molecular target: T2, Ube2V1 (Homo sapiens, UniProt Q13404); test: as above; assay type: cell-based; conditions: HEK293T, Halo-Ube2V1
# T2 construct: the gene of interest (GOI) was PCR-amplified out from the original plasmid; expressed in transfected cells; host or cells: HEK 293T
# Procedure: as §1, §2
# HaloTag = test: Reaction of purified recombinant HaloTag with HNE, in-gel fluorescence; assay type: biochemical; conditions: 0-16 equiv., 20-min incubation
# Procedure: HEK293T cells expressing HaloTag alone treated under standard T-REX™ delivery conditions with Ht-PreHNE were exposed to UV light (0.3 mW/cm^2, 365 nm) for the indicated time periods at which point the cells were harvested, lysed, and subjected to Click coupling and in-gel fluorescence analysis followed by western blot. Error bars designate SD (N=3). […] Purified recombinant HaloTag was treated with either the photocaged precursor Ht-PreHNE (FIG. 17, inset, and FIG. 29) (2 equiv., lane a, positive control), or directly with reactive electrophile HNE (FIG. 29) (0, 2, 4, 8, 16 equiv., lane b, c, d, e, f, respectively). After 20-min incubation, the samples were analyzed by in-gel fluorescence. M, molecular weight ladder.
# T2 sequence (Q13404 1-170 isoform Q13404-2): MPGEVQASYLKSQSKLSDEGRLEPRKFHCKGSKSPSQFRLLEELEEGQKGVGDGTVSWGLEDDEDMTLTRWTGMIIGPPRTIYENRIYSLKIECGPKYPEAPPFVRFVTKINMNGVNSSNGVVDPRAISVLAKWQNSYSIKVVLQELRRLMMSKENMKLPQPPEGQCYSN
compound,measurement,setting,value
"CCCCCC(O)/C=C/C=O (stereo not shown) [HNE, 4-hydroxynonenal]",DNA-synthesis stall,[1],the extent of DNA-synthesis stall was similar to that observed under mitomycin-C treatment
same,T-REX targeted delivery efficiency,Ube2N,< 2%
same,T-REX targeted delivery efficiency,Ube2V1,5±2%
same,reaction of HaloTag with HNE,HaloTag,does not react
